The record followed here is patent US10792365B2, “Peptide derivative and use thereof” (Toray Industries, Inc., priority 2016, dated 2020).

Each structure is given as a SMILES string. Where two headings read alike, the source gives them in different places.

Data set [1] can be described thus: Parallel Artificial Membrane Permeation Assay (PAMPA), Pre-coated PAMPA Plate System (Corning). The procedure:
Reference Example 14, the Compound of Reference Example 16, and the Compound of Comparative Example was Evaluated by Using Pre-Coated PAMPA PlateSystem (Corning)
A frozen-stored, Pre-coated PAMPA Plate System was allowed to stand at room temperature for thirty minutes or more. Subsequently, 320 μL of the standard solution was added to a Donor side plate of Pre-coated PAMPA Plate System, and 200 μL of the PBS containing 20% of methanol was added to an Acceptor side plate. Both of the plates were set for the system, and the plates allowed to stand at room temperature for five hours. The reaction liquid in each well of the Donor side and Acceptor side plates was subjected to LC/MS analysis (hereinafter, LC/MS-3), and the concentration of the compounds in each well calculated.
Using the obtained concentration of the compounds in the reaction liquid in each well, the membrane permeability coefficients (Pe) (cm/s) were calculated by the following formula: Cequilibrium=[…] Pe=[−ln(1−CA/Cequilibrium)]/S×(1/VD+1/VA)×t Cequilibrium: Equilibrium concentration of the wells in the Donor side and Acceptor side plates CD: Concentration after five hours of the wells in the Donor side plate (mmol/L) VD: Volume of the standard solution added to the wells in the Donor side plate (0.32 mL) CA: Concentration after five hours of the wells in the Acceptor side plate (mmol/L) VA: Volume of the PBS containing 20% of methanol added to the wells in the Acceptor side plate (0.2 mL) S: Surface of the membrane (0.3 cm^2) t: Standing time 18,000 s (=5 hrs).

In data set [2] the test system is SKOV-3 cells. Briefly: In vitro cytotoxicity of the peptide derivative (I), MTS method, SKOV-3 cells. The class given is cell-based, human. The settings on record: Homo sapiens, SK-OV-3. The source says:
(§1) The cytotoxicity of the peptide derivative (I) or a pharmaceutically acceptable salt thereof, or the conjugate including the peptide derivative (I) or a pharmaceutically acceptable salt thereof can be evaluated with an in vitro study. Examples of the in vitro studies include the trypan blue dye exclusion method, the lactate dehydrogenase (LDH) activity assay, [^3H]thymidine incorporation method, or propidium iodide nuclear stain that each measures the number of dead cells or surviving cells post treated with the compound; a method using dyes such as MTT, MTS, and WST (Current Protocol in Toxicology, (2000), 2.6.1-2.6.27); or a method in which the amount of ATP is measured using CellTiter-Glow (Promega Corporation) and the like, and preferably include the method in which the number of surviving cells post treated with the compound is measured by using the MTS method to determine values of the cytotoxicity at that time from 50% effect-concentration (EC50). Furthermore, in the evaluation of the cytotoxicity of the conjugate including the peptide derivative (I) or a pharmaceutically acceptable salt thereof, preferred method is the one that for a certain time, cells are treated with a medium containing the compound, the cells are then transferred to a medium not containing the compound, and the number of surviving cells are measured after cultivation for additional certain time (Bioconjugate Chemistry., 2014; 25: pp. 560-568). For the in vitro studies, human ovarian cancer cell SKOV-3 cells, human alveolar basement epithelial gland cancer cell A549 cells, mouse lymphocytic leukocyte L1210 cells and the like are used.
Background: Tetrazolium dyes change colour on reduction, which living cells bring about.

Data set [3] has as its system L1210 cells. Briefly: In vitro cytotoxicity of the peptide derivative (I), MTS method, L1210 cells. The class given is cell-based, mouse. As to conditions: Mus musculus.
Excerpt: as §1

The subject of data set [4] is A549 cells. Description: In vitro cytotoxicity of the peptide derivative (I), MTS method, A549 cells. The class given is cell-based, human. The settings on record: Homo sapiens.
Excerpt: as §1

In data set [5] the test system is L1210 cells. The class given is cell-based, mouse. The settings on record: 48 h. On the procedure:
(§2) The compound of Example 12 and the compound of Example 13 were measured for cytotoxicity thereof on SKOV-3 cells, A549 cells, and L1210 cells by using MTS method.
(§3) An evaluation method of the compound of Example 12 is as follows: To each cell culturing in a medium that is absent of folate, the compound of Example 12 was treated for two hours, and then the cells transferred to a fresh medium absent of the compound and continuously maintained and cultured for 48 hours. Surviving cells after 48 hours were counted by using MTS method.
(§4) An evaluation method of the compound of Example 13 is as follows: To each cell culturing in a medium that is absent of folate, the compound of Example 13 was treated for six hours, and then the cells transferred to a fresh medium absent of the compound and continuously maintained and cultured for 48 hours. Surviving cells after 48 hours were counted by using MTS method.
(§5) It has been reported that SKOV-3 cells and L1210 cells express folate acceptors in medium to high expression level on their cell surface. It has been reported that A549 cells express folate acceptors in low expression level or undetectable level on its cell surface (Analytical Biochemistry, (2005), 338: pp. 284-293; Molecular Cancer Therapeutics, (2015), 14: pp. 1605 to 13).

Data set [6] relates to A549 cells. The class given is cell-based, human. As to conditions: 48 h. The procedure:
as §2, §3, §4, §5

For data set [7], the system named is SKOV-3 cells. The class given is cell-based, human. As to conditions: 48 h. The procedure:
as §2, §3, §4, §5

A word on the Papp: it is a coefficient for how fast a substance crosses the barrier. Usually EC50 stands for the concentration giving half of the maximal effect. Low readings indicate greater potency, high ones weaker potency. `CC[C@H](C)[C@@H]([C@@H](CC(=O)N1CCC[C@H]1[C@H](OC)[C@@H](C)C(=O)N[C@@H](Cc1ccccc1)c1nc(C(=O)OCCN)cs1)OC)N(C)C(=O)[C@@H](NC(=O)[C@H](C(C)C)N(C)C)C(C)C` [Example 4] had a Papp at 5 h, 200 μmol/L in data set [1] of 0.01 ×10⁻⁶ cm/s. Besides, the EC50 in the data set on SKOV-3 cells [2] stood at 0.85 nM; in the data set on L1210 cells [3] it was 28.7 nM; in the data set on A549 cells [4] it was 0.83 nM.
Regarding `CC[C@H](C)C([C@@H](CC(=O)N1CCC[C@H]1[C@H](OC)[C@@H](C)C(=O)N[C@@H](Cc1ccccc1)c1nc(C(=O)N(C)CCSSCCN(C)C(=O)CCOCCOCCOCCOCCOCCOCCOCCOCCOCCOCCOCCOCCNC(=O)CCN2C(=O)CC(SCCNC(=O)[C@H](CCC(=O)O)NC(=O)CC[C@H](NC(=O)c3ccc(NCc4c[nH]c5nc(N)nc(=O)c-5n4)cc3)C(=O)O)C2=O)cs1)OC)N(C)C(=O)[C@@H](NC(=O)[C@H](C(C)C)N(C)C)C(C)C` (stereo in doubt) [Example 13], the EC50 is 36 nM with L1210 cells [5], greater than 300 nM with A549 cells [6] and 19.4 nM in the data set on SKOV-3 cells [7].
The compound `CC[C@H](C)[C@@H]([C@@H](CC(=O)N1CCC[C@H]1[C@H](OC)[C@@H](C)C(=O)N[C@@H](Cc1ccccc1)c1nc(C(=O)NCCc2ccc(O)cc2)cs1)OC)N(C)C(=O)[C@@H](NC(=O)[C@H](C(C)C)N(C)C)C(C)C` [Example 11, 2-((S)-1-((2R,3R)-3-((S)-1-((3R,4S,5S)-4-((S)-2-((S)-2-(dimethylamino)-3-methylbutanamido)-N,3-dimethylbutanamido)-3-methoxy-5-methylheptanoyl)pyrrolidin-2-yl)-3-methoxy-2-methylpropanamido)-2-phenylethyl)-N-(4-hydroxyphenethyl)thiazole-4-carboxamide] returned a Papp at 5 h, 200 μmol/L in data set [1] of 0.36 ×10⁻⁶ cm/s. In addition, the EC50 in the data set with SKOV-3 cells [2] amounted to 0.37 nM; with L1210 cells [3] it was 5.61 nM; with A549 cells [4] it was 1.31 nM.
The like results for `CC[C@H](C)[C@@H]([C@@H](CC(=O)N1CCC[C@H]1[C@H](OC)[C@@H](C)C(=O)N[C@@H](Cc1ccccc1)c1nc(C(=O)OCCS)cs1)OC)N(C)C(=O)[C@@H](NC(=O)[C@H](C(C)C)N(C)C)C(C)C` [Example 2, 2-mercaptoethyl 2-((S)-1-((2R,3R)-3-((S)-1-((3R,4S,5S)-4-((S)-2-((S)-2-(dimethylamino)-3-methylbutanamido)-N,3-dimethylbutanamido)-3-methoxy-5-methylheptanoyl)pyrrolidin-2-yl)-3-methoxy-2-methylpropanamido)-2-phenylethyl)thiazole-4-carboxylate] were, in that order, 0.005 ×10⁻⁶ cm/s, 0.13 nM, 14.2 nM and 6.88 nM.
